Here are results for 26 compounds from PubChem BioAssay (NCI).

Values joined by “and” are separate entries in the source; they are usually repeats but may differ in a detail not shown here. Equal values may be shown once.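 Results reflect a 48-hour exposure of cells in 96-well plates to compound at five concentrations. Here, GI50 denotes the concentration required for 50% inhibition of growth. TGI marks complete inhibition of growth.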

The assay relates to MDA-MB-468 breast. Kind of assay: NCI-60 cell line screen, 48 h.

Regarding `O=C(Nc1ccc(Br)c(Cl)c1)c1cc(F)ccc1O`, the GI50 was 0.942 µM and the TGI came out at 3.35 µM.
The corresponding values for `O=C1/C(=C/C(Cl)=C/c2ccccc2)SC(=S)N1CCc1ccc(O)cc1` are 1.89 µM and 6.04 µM.
For `COc1cc2c3c(n(C4CCNCC4)c(=O)c2cc1OC)-c1cc2c(cc1C3=O)OCO2` the same measures were 0.455 µM and 1.85 µM.
The corresponding values for `Cc1ccc(C(=O)NC2CCCCC2)cc1-c1ccc(C(=O)NCC2CC2)cc1` are more than 23.6 µM and more than 25 µM.
`CCN1CCN(S(=O)(=O)c2oc(-c3ccc(Cl)cc3)nc2C#N)CC1`: the GI50 is 2.21 µM and the TGI was found to be 5.16 µM.
For `CC[C@H](C)C(=O)O[C@H]1CCC=C2C=C[C@H](C)C(CCC3C[C@@H](O)CC(=O)O3)[C@H]21` (stereo partly specified) the same measures were 5.85 µM and 30.8 µM.
Turning to `O=C(O)CCC1CCC(c2cc(F)ccc2F)(S(=O)(=O)c2ccc(Cl)cc2)CC1` (stereo unspecified), the GI50 is 13.1 µM and 45.3 µM; the TGI is 52.5 µM and > 100 µM.
`COc1cc(C(=O)n2nc(N3CCN(C)CC3)c3cc(N)ccc32)cc(OC)c1OC`: the GI50 was 2.97 µM and the TGI stood at 9.38 µM.
In the case of `NC(=O)Oc1cc(OC(N)=O)cc(N(CCCl)CCCl)c1`, the GI50 is 1.71 µM and the TGI stood at 13 µM.
The corresponding values for `COc1ccc(Nc2ccnc(NCCCNc3ccnc4cc(Cl)ccc34)n2)cc1` are 0.871 µM and 2.42 µM.
For `COC(=O)c1c2c(c(C)[n+]([O-])c1C)C(=O)C(NCc1ccc(F)c(F)c1)=CC2=O` the same measures were 1.16 µM and 3.07 µM.
For `[N-]=[N+]=CC(=O)OCC(N)C(=O)O` (stereo unspecified) the same measures were 1.21 µM and 11.1 µM.
With `CO[C@H](C(=O)N[C@@H](CCCCNC(=O)OCc1ccccc1)C(=O)OC(C)(C)C)[C@@H]1Cc2cc3cc(OC4CC(OC5CC(O)C(O)C(C)O5)C(O)C(C)O4)c(C)c(O)c3c(O)c2C(=O)[C@H]1OC1CC(OC2CC(OC3CC(C)(O)C(O)C(C)O3)C(O)C(C)O2)C(O)C(C)O1` (stereo partly specified), the GI50 was 0.764 µM and the TGI amounted to 2.92 µM.
For `Cn1cc(C2=C(c3c4n(c5ccccc35)CCC(CN)CC4)C(=O)NC2=O)c2ccccc21` (stereo unspecified) the same measures were 3.72 µM and 7.51 µM.
For `O=C(Cn1ccnc1[N+](=O)[O-])NCC(F)(F)C(F)(F)F` the same measures were more than 100 µM and more than 100 µM.
The corresponding values for `CCCCCCCCCCCCCCCCOCCCOP(=O)(O)C1CCCN(O)C1=O` (stereo unspecified) are 2.57 µM and 9.93 µM.
As for `COc1ccc(-c2nc(-c3nc4cc(C)c(C)cc4[nH]3)cc3c2[nH]c2ccccc23)cc1`, the GI50 is 1.99 µM and the TGI was 4.78 µM.
The corresponding values for `Cc1ccc(S(=O)(=O)n2cc(C(=O)C(=O)Nc3ccncc3)c3ccccc32)cc1` are 1.1 µM and 9.53 µM.
The corresponding values for `Cc1ccc(NC(=O)c2ccnc(N3CCCC3)c2)cc1-c1ccc(C(=O)NCC2CC2)cc1` are more than 25 µM and more than 25 µM.
The corresponding values for `CN1CCN(Cc2ccc(Nc3ncc(Cl)c(Nc4ccccc4S(=O)(=O)N(C)C)n3)cc2)CC1` are 0.0525 µM and 0.268 µM.
Consider `COc1cccc2c1c1nc3cc(C)c(C)cc3nc1n2CCN(C)C`, for which the GI50 was 1.54 µM and the TGI was found to be 4.14 µM.
The corresponding values for `O=C1/C(=C/c2ccc(Cl)cc2)CN(C(=O)C(Cl)Cl)C/C1=C\c1ccc(Cl)cc1` are 0.182 µM and 0.376 µM.
As to `CCNc1nc(N2CC(=O)Nc3cc(OC)ccc32)c2ccccc2n1`, the GI50 is 0.00026 µM.
Take `CC/C(=C(\CC)c1ccc(OCCN(CC)CC)cc1)c1ccc(OCCN(CC)CC)cc1`: the GI50 was 1.59 µM and the TGI turned out to be 3.64 µM.
For `COc1cnc2c(c1)C(=O)c1c-2n(CCCN2CCN(C)CC2)c(=O)c2cc(Cl)ccc12` the same measures were 1.19 µM and 14.8 µM.
For `COc1ccc(F)cc1C(=O)c1cnc(NC2CCN(S(C)(=O)=O)CC2)nc1N` the same measures were 3.95 µM and 9.87 µM.
